Source: patent publication US4794104A, “Pharmaceutical compositions containing ACTH fragments for the therapy of shock conditions and of respiratory and cardiocirculatory insufficiencies” (priority 1986, dated 1988)

Key:
shock = settings: in vivo; cited from earlier work
[1] = tested on: hypovolemic shock (severe hypotension induced by bleeding) in rats; assay: Hypovolemic shock by bleeding in anesthetized rats: mean arterial pressure and survival after i.v. bolus; assay type: in vivo, female Wistar rats; settings: for Mean arterial pressure, 15-30 min. after treatment / Mean arterial pressure, after bleeding / Mean arterial pressure, before bleeding: mean ± S.E.; for Mean arterial pressure, after bleeding: before treatment; for Mean arterial pressure, before bleeding: baseline before bleeding
Procedure: Intact and adrenalectomized female Wistar rats (Nossan, Correzzano, Milano, Italy) weighing 250 to 300 g, were used. Following anesthetization and heparinization a common carotid artery and an iliac vein were cannulated in rats. Arterial blood pressure was recorded by means of a pressure transducer (Statham P23 Db) connected to a polygraph (Battaglia-Rangoni, Bologna, Italy). […] Hypovolemic shock was produced by intermittently withdrawing blood from the venous catheter until mean arterial pressure fell to 16-30 mm Hg. […] Following bleeding and mean blood pressure stabilization in the range of 16-30 mm Hg, animals were given intravenous bolus of either ACTH fragments. Control animals were intravenously injected with the same volume of saline (0.1 ml/100 g of body weight).

[2] = Toxicity and side-effects of ACTH fragments (general statement)
[3] = group later given 160 μg/kg i.v.
[4] = group later given 40 μg/kg i.v.
[5] = group later given 80 μg/kg i.v.

Row | Compound | No. of deaths 120 min. after treatment ([1]; 160 μg/kg i.v. after bleeding) | Mean arterial pressure, 15-30 min. after treatment ([1]; 160 μg/kg i.v. after bleeding) [mm Hg] | Mean arterial pressure, after bleeding [1, 3] [mm Hg] | Mean arterial pressure, before bleeding [1, 3] [mm Hg] | other results
1 | C=CCN1CC[C@]23c4c5ccc(O)c4O[C@H]2C(=O)CC[C@@]3(O)[C@H]1C5 [naloxone] |  |  |  |  | Dosage therapeutically active in shock (shock): about 1 mg/kg
2 | ACTH (1-13) (SYSMEHFRWGKPV; Corticotropin; UniProt P01189 138-150, looked up, fragment) [ACTH-(1-13)] | 0 | 34.50 ± 1.32 | 15.75 ± 1.31 | 66.25 ± 9.14 | 
3 | ACTH (1-16) (SYSMEHFRWGKPVGKK; Corticotropin; UniProt P01189 138-153, looked up, fragment) [ACTH-(1-16)] | 0 | 54.50 ± 2.02 | 15.50 ± 2.53 | 78.25 ± 12.46 | 
4 | ACTH (1-17) [ACTH-(1-17)] | 0 | 41.50 ± 3.75 | 15.75 ± 2.29 | 57.50 ± 7.17 | 
5 | ACTH (1-18) (SYSMEHFRWGKPVGKKRR; Corticotropin; UniProt P01189 138-155, looked up, fragment) [ACTH-(1-18)] | 0 | 38.50 ± 1.85 | 15.00 ± 2.12 | 53.00 ± 4.88 | 
6 | ACTH (1-24) [ACTH-(1-24)] | 0 | 75.80 ± 8.45 | 23.15 ± 2.90 | 82.40 ± 10.75 | Toxicity / side-effects [2]: substantially non-toxic; No. of deaths 120 min. after treatment ([1]; 40 μg/kg i.v. after bleeding): 0; Mean arterial pressure, 15-30 min. after treatment ([1]; 40 μg/kg i.v. after bleeding): 39.40 ± 6.32 mm Hg; No. of deaths 120 min. after treatment ([1]; 80 μg/kg i.v. after bleeding): 0; Mean arterial pressure, 15-30 min. after treatment ([1]; 80 μg/kg i.v. after bleeding): 59.48 ± 8.10 mm Hg; Mean arterial pressure, after bleeding [1, 4]: 17.40 ± 2.68 mm Hg; Mean arterial pressure, before bleeding [1, 4]: 82.33 ± 11.73 mm Hg; Mean arterial pressure, after bleeding [1, 5]: 19.23 ± 3.65 mm Hg; Mean arterial pressure, before bleeding [1, 5]: 80.15 ± 9.43 mm Hg
7 | ACTH (1-39) (SYSMEHFRWGKPVGKKRRPVKVYPNGAEDESAEAFPLEF; Corticotropin; UniProt P01189 138-176, looked up) [ACTH-(1-39), full-length ACTH (1-39)] | 0 | 35.75 ± 5.65 | 14.75 ± 2.32 | 88.25 ± 2.17 | 
8 | ACTH (4-10) (MEHFRWG; Corticotropin; UniProt P01189 141-147, looked up, fragment) [ACTH-(4-10)] | 0 | 47.25 ± 6.18 | 13.75 ± 2.53 | 63.25 ±6.76 | 
9 | ACTH(25-39) (NGAEDESAEAFPLEF; Corticotropin; UniProt P01189 162-176, looked up, fragment) | 1 | 25.50 ± 4.40 | 11.50 ± 1.34 | 78.17 ± 7.25 | 
